`COC(=O)c1ccc(CC(C)NCC(O)c2ccc(O)c(CO)c2)cc1OC` (centres undefined) showed a melting point of 64 to 71 °C. Molecule `C#CCN1C(=O)C2CC3CC(C2)CC1C3` has a melting point of 168 to 170 °C. `COc1ccc(-c2[nH]c(-c3ccc([N+](=O)[O-])c(C)c3)nc2C(=O)O)cc1` gave a melting point of 229 to 230 °C. For `O=[N+]([O-])c1cccc(OCc2ncc3ccccc3n2)c1`, the melting point was 125 to 127 °C. Molecule `Cc1cc(CCC2(C)NC(=O)NC2=O)cc(C(C)(C)C)c1O` (centres undefined) has a melting point of 210 to 211 °C. In the case of `COC(=O)NC1(C)CN(C(=O)Nc2ccc(C(F)(F)F)cc2)N=C1c1ccc(Cl)cc1` (centres undefined), the melting point is reported as 179 to 181 °C. `N#CC1CC2CCC(C1)N2Cc1ccccc1` (centres undefined) showed a melting point of 119 to 120 °C. In the case of `COc1c(C)c(-c2ccccc2)nn1N`, the melting point is reported as 92 to 94 °C. With `CSc1c(C#N)nn(-c2c(Cl)cc(C(F)(F)F)cc2Cl)c1N(C)C` the melting point was 118 to 119 °C. Work on `CC(C)S(=O)(=O)N1CCC2(CC1)OCCO2` yielded a melting point of 66 to 67 °C. For `CCOC(=O)c1cc2c(cn1)[nH]c1ccc(N(C)C)cc12`, the melting point was 220 to 221 °C. Work on `C#CC1(c2ccc(OC)c(OC3CCCC3)c2)CC(=O)C1` yielded a melting point of 58 to 59 °C. With `COc1ccc(/C(=C/C(=O)N2CCN(C(=O)c3cc(OC)c(OC(C)=O)c(OC)c3)CC2)c2ccccc2Cl)cc1` the melting point was 191 to 194 °C. Work on `Cn1cc(C2=C(c3cn(CCCN=C=S)c4ccccc34)C(=O)NC2=O)c2ccccc21` yielded a melting point of 219 to 221 °C. Molecule `CC(C)(C)NC(=O)c1nn(-c2ccc(F)cc2)c2c1C1CC3CC(C1)CC2C3` has a melting point of 214 to 216 °C. With `CCOC(=O)CCC1Cc2cc(O)ccc2NC1=O` (centres undefined) the melting point was 138 °C. Work on `COc1cc(Br)c(Br)cc1C=NNC(=N)NN=Cc1cc(Br)c(Br)cc1OC` yielded a melting point of 265 to 267 °C. Work on `CC(=O)c1cc2c(cc1OCCCCCBr)OC(C(=O)OC(C)C(C)O)CC2` (centres undefined) yielded a melting point of 80 to 83 °C. Work on `Cc1nccnc1NCCN1CCC(NC(=O)c2cc(Cl)c(N)c3c2OC(C)(C)C3)CC1` yielded a melting point of 163 °C. For `NC(=O)c1c(F)ccc(OCc2ccc3sccc3c2)c1F`, the melting point was 146 to 148 °C. For `CC(=O)NC1CC(C)(C)NC(C)(C)C1`, the melting point was 100 to 102 °C. Molecule `Cc1cccc(C=CCC(CCC(=O)O)(C(=O)C=Cc2ccc(Cl)cc2)c2ccccc2)c1` (centres undefined) has a melting point of 135 to 144 °C. For `CCOC(=O)c1ccc(NC(=O)c2ccc3c(c2)SCCC3(C)C)cc1`, the melting point was 148 to 150 °C. For `O=c1c(NCc2cccc(O)c2)c(Nc2ccc(O)c(-c3ccccn3)c2)c1=O`, the melting point was 271 to 272 °C. With `Cc1ncc2n1C(=O)N(C1CCN(C(=O)CCS(=O)(=O)c3ccc4cc(Cl)ccc4c3)CC1)C2` the melting point was 195 °C. For `COc1cc2c(Nc3ccc(C)c(O)c3)ncnc2cc1OCc1ccncn1`, the melting point was 290 to 291 °C. In the case of `COc1ccc2nc3ccc(C(C)=O)cn3c(=O)c2c1`, the melting point is reported as 194 to 196 °C. Molecule `CCNC(=O)c1c([Si](C)(C)C)ccc(Cl)c1Cl` has a melting point of 96 to 98 °C. Molecule `Cc1nc2c(O[C@@H]3c4ccccc4C[C@H]3O)cc(C(=O)O)cn2c1C` (relative stereo) has a melting point of 229 to 231 °C. With `CCn1nccc1-c1ccc2[nH]c3c(cc(-c4ccc(Cl)cc4Cl)c(=O)n3C)c2c1` the melting point was 255 to 258 °C. For `CC1(C)COC(C)(C)N1C(=O)OCCN(Cc1ccccc1)Cc1ccccc1`, the melting point was 32 °C. `CC(OC(=O)OC1CCCCC1)OC(=O)C1(C(=O)OC(C)OC(=O)OC2CCCCC2)Oc2ccc(C[C@@H](C)NC[C@H](O)c3cccc(Cl)c3)cc2O1` (some centres undefined) showed a melting point of 78 to 81 °C. Work on `CCOC(=O)c1cn2c3c(c(F)c(F)cc3c1=O)OCC2C` (centres undefined) yielded a melting point of 257 to 258 °C. With `CCCCCc1ccc(-c2ncc(C#N)cn2)cc1` the melting point was 96 to 96.2 °C. `O=[N+]([O-])c1cc(F)ccc1NC1CCCCC1` gave a melting point of 93 °C. `CCCN(CCCCNC(=O)N1CCN(c2ccccc2)CC1)C1CCc2ncsc2C1` (centres undefined) showed a melting point of 120 °C. `CCC(C)Cc1ccc(OC(=O)c2ccc(O)cc2Cl)cc1` (single isomer, unassigned; (+)) gave a melting point of 142 °C. With `CN(C)C1CCc2[nH]c3cc(O)ccc3c2C1` (centres undefined) the melting point was 286 to 288 °C. `Oc1nc2cc(F)c(F)cc2nc1O` showed a melting point greater than 310 °C. `Cc1c(OCCNC(=O)OC(C)(C)C)noc1-c1ccccc1` gave a melting point of 118 to 120 °C. Molecule `O=C(O)c1cc(C(F)(F)F)ccc1I` has a melting point of 171 to 172 °C. Molecule `Cn1ccnc1-c1ccc(OCC(O)CNCCOc2ccc(O)c(C(N)=O)c2)cc1` (centres undefined) has a melting point of 108 to 112 °C. `O=C1c2cccnc2N(c2ccccc2)C(=O)C12CCCCO2` (centres undefined) gave a melting point of 213 to 215 °C. Work on `CCCCc1cn(CCCC)c(=O)n1Cc1ccc(-c2cnccc2-c2nnn[nH]2)cc1` yielded a melting point of 128 to 130 °C. For `CONC(=O)Nc1cc(C(C)(C)C)on1`, the melting point was 145 to 148 °C. In the case of `Cc1cccc(NC(=O)NC2CN(C(=O)CN3CCN(C)CC3)c3ccccc3N(CC(=O)c3ccccc3C)C2=O)c1` (centres undefined), the melting point is reported as 245 to 247 °C. `COc1ccc2nc3cc(N4CCN(C)CC4)c(=O)cc-3sc2c1` showed a melting point of 208 to 209 °C. With `CSc1cc(C)nc(SC)c1NC(=O)CCCCSc1nc2ccccc2s1` the melting point was 121 to 123 °C. Work on `O=C1Nc2ccccc2SC1CCCCCl` (centres undefined) yielded a melting point of 111 to 112 °C. Molecule `CCCCN(CC1Cc2cc(Cl)cc(Cl)c2O1)C(=O)n1cncn1` (centres undefined) has a melting point of 122 to 124 °C. `CN(c1ccc([N+](=O)[O-])cc1[N+](=O)[O-])S(=O)(=O)c1ccccc1` showed a melting point of 152 to 153 °C. `CC(F)C(C)(N)C(=O)O` (centres undefined) showed a melting point of 226 °C. `OC1CSC(Oc2cc(-c3cccnc3)ccc2F)C(O)C1O` (centres undefined) gave a melting point of 100 °C. Work on `O=C(O)c1ccc(-c2ccccc2OC2OC(CO)C(O)C(O)C2O)cc1` (centres undefined) yielded a melting point of 248 to 249 °C. `COC(=O)CCCc1cc2nc(Cl)ccc2n1S(=O)(=O)c1ccc(Br)cc1` showed a melting point of 102 °C. Molecule `c1cn2nc(N3CCOCC3)c3c(c2n1)CCCC3` has a melting point of 160 to 161 °C. With `N#CC(=NO)c1cccs1` the melting point was 103 to 104 °C. Molecule `CN(C)CCCCCNC(=O)c1ccc(-c2nnc(CSCCOc3ccccc3)o2)cc1` has a melting point of 83 to 89 °C. Work on `CCCCNC(=O)c1ccccc1CN1C(=O)C2(COc3cc4c(cc32)CCO4)c2ccccc21` (centres undefined) yielded a melting point of 176 to 178 °C. With `CCOC(=O)c1cnc2ccc(Cl)nn2c1=O` the melting point was 149 to 152 °C. `N#CC(N)(N)c1cccnc1` gave a melting point of 158 °C. `CCCn1cnc(C(N)=O)c1N` gave a melting point of 241 to 243 °C. For `O=C=Nc1cc(OC(=O)Oc2cc(N=C=O)c(F)cc2Cl)c(Cl)cc1F`, the melting point was 108 to 109 °C. For `COc1c(N2CCC(NC3CC3)C(C)C2)c(F)cc2c(=O)c(C(=O)O)cn(C3CC3)c12` (centres undefined), the melting point was 182 to 184 °C. For `CCCCCCCC(=O)CCCCCC(=O)N[C@@H](C)C(=O)N[C@H](CCC(=O)OCc1ccccc1)C(N)=O`, the melting point was 137 to 141 °C. In the case of `N#Cc1cnc2cnc(F)cc2c1O`, the melting point is reported as 214 to 215 °C. With `O=C(NCCN1CCN(c2cccc(Cl)c2)CC1)c1nsc2ccccc12` the melting point was 115 to 117 °C. For `O=C(O)CCc1cnoc1-c1ccc(F)c(Cl)c1`, the melting point was 118 to 119 °C. `COc1cc(C=C[N+](=O)[O-])ccc1OCc1cccc2ccccc12` showed a melting point of 120 to 123 °C. Work on `CC(C)(C)OC(=O)NCC1CCn2c(cc3ccccc32)C1` (centres undefined) yielded a melting point of 80 to 85 °C. Molecule `O=C(NCc1ccc(Br)cc1F)c1ccc(Br)cc1[N+](=O)[O-]` has a melting point of 192 to 193 °C. For `CC(C)CC1(CCCCN2CCN(c3ccccn3)CC2)C(=O)Nc2ccccc21` (centres undefined), the melting point was 158 to 159 °C. `COc1cc2c(cc1OC)C(=O)NC(=O)C2` showed a melting point of 234 to 238 °C. `O=C(O)CC1(S)C2CC3CC(C2)CC1C3` (centres undefined) gave a melting point of 178 to 180 °C. For `Oc1ccc(C(F)(F)C(F)(F)OC(F)(F)C(F)(F)OC(F)(F)C(F)(F)c2ccc(O)cc2)cc1`, the melting point was 118 to 120 °C. Molecule `CCCCCCCCOC(=O)N(C[C@H](O)[C@@H](O)[C@H](O)[C@H](O)CO)C(C)CC` (some centres undefined) has a melting point of 101 °C. `O=C(O)Cc1ccccc1Oc1ccc(C(F)(F)F)cc1[N+](=O)[O-]` gave a melting point of 165 to 167 °C. For `Cc1ccc2c(c1)Oc1cscc1C(=O)N2`, the melting point was 209 to 216 °C. `Cc1nc2c(s1)CN=C(c1ccccc1)c1cc(Cl)ccc1-2` gave a melting point of 128 to 130 °C. Molecule `CC(=O)N1CCCC1n1nccc1-c1ccc(Oc2ccc(F)cc2)cc1` (centres undefined) has a melting point of 90 to 95 °C. In the case of `CC(Nc1ccccc1)c1ccc(C(C)Nc2ccccc2)cc1` (centres undefined), the melting point is reported as 169 to 170 °C. With `CC1(C(=O)Cn2cncn2)COCOC1` the melting point was 95 to 97 °C. With `COc1ccc(C2=NN(Cc3ccc(O)cc3)C(=O)[C@H]3CCCC[C@@H]23)cc1OC` (relative stereo) the melting point was 177 to 179 °C. With `Clc1ccc2c(c1)N=C(N1CCCN(C3CC3)CC1)c1ccccc1N2` the melting point was 141 to 143 °C. In the case of `CCC1c2cccn2-c2ccc(F)cc2N1S(=O)(=O)c1ccc(OC)c(C)c1` (centres undefined), the melting point is reported as 164 to 166 °C. In the case of `O=C1NC(=O)c2ccc(I)cc2/C1=C/NCc1ccc(-n2cccc2)c(O)c1`, the melting point is reported as 230 to 231 °C. In the case of `CCCOc1cc(-c2ccc3c(c2)C=C(C(=O)Nc2ccc(CN(C)C4CCOCC4)cc2)CCS3(=O)=O)ccc1C#N`, the melting point is reported as 201 to 203 °C. Molecule `N#CSc1ccc(O)cc1Br` has a melting point of 91 to 92 °C. Molecule `O=c1n(CC(F)(F)F)c2ccccc2n1C1CCN(CCCCN2Cc3cc(Cl)ccc3S2(=O)=O)CC1` has a melting point of 237 to 239 °C. For `CC1(C)CON(Cc2ccc(N3C(=O)c4ccccc4C3=O)cc2Br)C1=O`, the melting point was 158 to 159 °C. With `COC(=O)c1c(F)cc(OCCNC(=O)C2Cc3ccccc3N2S(=O)(=O)c2ccc(-c3ccc(F)cc3Cl)cc2)cc1F` (centres undefined) the melting point was 68 to 74 °C. In the case of `CS(=O)c1ccc2nc(NC(=N)N)nc(-c3ccccc3)c2c1` (centres undefined), the melting point is reported as 175 to 180 °C. With `COC(=O)c1cc(CC#N)cc(Cc2nc3c(F)c(F)cc(F)c3s2)c1` the melting point was 130 to 132 °C. In the case of `CCOP(=O)(Cc1ccc(NC(=O)[C@H]2Cc3cc(OC)c(OC)cc3C(=O)CS2)cc1)OCC`, the melting point is reported as 96 to 98 °C. For `O=C(c1cc2c(cn1)[nH]c1ccccc12)n1ccnc1`, the melting point was greater than 280 °C. Molecule `CCOc1cc2cc3c(Nc4cc(OC)c(Cl)cc4C)c(C#N)cnc3cc2cc1OCCCl` has a melting point of 129 to 130 °C. Molecule `O=C(c1ccccc1)N1CCn2c(CN3CCOCC3)ccc2C1` has a melting point of 101 to 102 °C. Molecule `COc1ccc(Cc2n[nH]c(=O)c3ccccc23)cc1N` has a melting point of 212 to 214 °C. `COc1ccc(S(=O)(=O)N2C(=O)C(c3cc(C)ccc3OC)(N3C[C@H](O)C[C@H]3C(=O)N(C)C)c3cc(Cl)ccc32)c(OC(F)(F)F)c1` (some centres undefined) gave a melting point of 192 to 193 °C.

Reference: a melting point compilation (Tetko et al.; mined from patent text by program, amines drawn as free bases though some values may be those of a salt)
